Measured values taken from PMC8329432 (Journal of Ethnopharmacology, 2021).

Each compound was assayed against GPR35 (Homo sapiens, UniProt Q9HC97) (assay: label-free dynamic mass redistribution). Conditions: read-out: EC50/IC50; agonist mode; HBSS, 10 mM HEPES, pH 7.4.
Type: cell-based

Chain of GPR35 (Q9HC97 whole entry): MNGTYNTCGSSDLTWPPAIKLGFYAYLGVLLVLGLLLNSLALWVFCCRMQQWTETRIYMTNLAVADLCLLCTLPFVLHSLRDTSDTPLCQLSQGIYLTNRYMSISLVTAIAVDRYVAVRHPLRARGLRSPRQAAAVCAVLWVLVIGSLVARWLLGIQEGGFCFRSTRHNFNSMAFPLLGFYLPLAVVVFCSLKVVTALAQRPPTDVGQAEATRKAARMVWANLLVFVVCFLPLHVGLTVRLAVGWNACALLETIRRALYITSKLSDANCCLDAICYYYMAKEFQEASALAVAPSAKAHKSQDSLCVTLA

Row | Structure (SMILES) | EC50 [µM]
1 | COc1c(O)cc2occ(-c3ccc(O)cc3)c(=O)c2c1O [LCDD-41, tectorigenin] | > 200
2 | O=C1c2c(O)cc(O)cc2O[C@H](c2ccc(O)c(O)c2)[C@H]1O [LCDD-68, taxifolin] | > 200
3 | O=C(/C=C/c1ccc(O)c(O)c1)O[C@@H]1[C@H](O)C[C@@](O)(C(=O)O)C[C@H]1OC(=O)/C=C/c1ccc(O)c(O)c1 [LCDD-79, isochlorogenic acid C] | 114
4 | O=C(/C=C/c1ccc(O)cc1)c1ccc(O)cc1O [LCDD-88, isoliquiritigenin] | > 200
5 | COc1c(/C=C/C(=O)c2ccc(O)cc2)ccc(O)c1O [LCDD-93, licochalcone B] | 25.1
6 | O=C(O)[C@H]1O[C@@H](Oc2cc3oc(-c4ccccc4)cc(=O)c3c(O)c2O)[C@H](O)[C@@H](O)[C@@H]1O [LCDD-117, baicalin] | > 200
